Experimental data published in patent US20250092065A1, “2-(INDAZOL-5-YL)-6-(PIPERIDIN-4-YL)-1,7-NAPHTHYRIDINE DERIVATIVES AND RELATED COMPOUNDS AS MODULATORS FOR SPLICING NUCLEIC ACIDS AND FOR THE TREATMENT OF PROLIFERATIVE DISEASES” (REMIX THERAPEUTICS INC., priority 2022, published 2025).

tested on: Target C; assay: HiBiT protein abundance assay, Target C (K562 HiBiT knock-in); assay type: cell-based, human; details: HiBiT knock-in K562 cells, 24 hours, top dose 10 μM
Method in brief: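 K562 HiBiT knock-in cells (10000/well) were treated 24 h at 37° C with a 10-point 3-fold dilution series (top 10 μM final, ≤0.25% DMSO). HiBiT luminescence was read after lytic LgBiT detection. Percent response used unmodified K562 and DMSO-treated knock-in controls, and IC50 came from a four-parameter fit at 50% of untreated.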

SMILES	IC50
Cn1cc2cc(-c3ccc4nc(N5CCC(NC6CC6)C5)ccc4n3)c(O)c(F)c2n1 (racemic) [Compound 287, 5-{6-[3-(cyclopropylamino)pyrrolidin-1-yl]-1,5-naphthyridin-2-yl}-7-fluoro-2-methylindazol-6-ol; trifluoroacetic acid]	< 100 nM
CC(C)N[C@H]1CCN(c2ccc3nc(-c4cc5cn(C)nc5c(F)c4O)ccc3n2)C1 (single isomer, unassigned) [Compound 286]	< 100 nM
Cc1c(O)c(-c2ccc3nc(N4CC[C@@H](NC5CCC5)C4)ccc3n2)cc2cn(C)nc12 (single isomer, unassigned) [Compound 289]	< 100 nM
Cc1c(O)c(-c2ccc3nc(N4CC[C@H](NC5CCC5)C4)ccc3n2)cc2cn(C)nc12 (single isomer, unassigned) [Compound 290]	< 100 nM
Cc1nc2cc(O)c(-c3ccc4nc(N5CCC(NCC6CC6)C5)ccc4n3)cc2o1 (single isomer, unassigned) [Compound 291, 6-(6-{3-[(cyclopropylmethyl)amino]pyrrolidin-1-yl}-1,5-naphthyridin-2-yl)-2-methyl-1,3-benzoxazol-5-ol]	100 to 1000 nM
Cc1nc2c(C)c(O)c(-c3ccc4nc(N5CC[C@H](NCC6CC6)C5)ccc4n3)cc2o1 (single isomer, unassigned) [Compound 296]	< 100 nM
Cn1cc2cc(-c3ccc4nc(N5CC[C@@H](N[C@H]6C[C@@H](F)C6)C5)ccc4n3)c(O)cc2n1 (single isomer, unassigned) [Compound 300]	< 100 nM
Cn1cc2cc(-c3ccc4nc(N5CC[C@@H](NCC6CC6)C5)ccc4n3)c(O)c(F)c2n1 (single isomer, unassigned) [Compound 303]	< 100 nM
Cn1cc2cc(-c3ccc4nc(N5CC[C@H](NCC6CC6)C5)ccc4n3)c(O)c(F)c2n1 (single isomer, unassigned) [Compound 304]	< 100 nM
Cn1cc2cc(-c3ccc4nc(N5CC[C@@H](NC6CC6)C5)ccc4n3)c(O)c(F)c2n1 (single isomer, unassigned) [Compound 305]	< 100 nM
Cn1cc2cc(-c3ccc4nc(N5CC[C@H](NC6CC6)C5)ccc4n3)c(O)c(F)c2n1 (single isomer, unassigned) [Compound 306]	< 100 nM
Cc1nc2c(F)c(O)c(-c3ccc4nc(N5CC[C@@H](NC6CCC6)C5)ccc4n3)cc2o1 (single isomer, unassigned) [Compound 307]	< 100 nM
Cc1nc2c(F)c(O)c(-c3ccc4nc(N5CC[C@H](NC6CCC6)C5)ccc4n3)cc2o1 (single isomer, unassigned) [Compound 308]	< 100 nM
Cn1cc2cc(-c3ccc4nc(N5CC[C@@H](NC6CCC6)C5)ccc4n3)c(O)c(F)c2n1 (single isomer, unassigned) [Compound 316]	< 100 nM
Cn1cc2cc(-c3ccc4nc(N5CC[C@H](NC6CCC6)C5)ccc4n3)c(O)c(F)c2n1 (single isomer, unassigned) [Compound 317]	< 100 nM
Cc1c(O)c(-c2ccc3nc(N4CC[C@@H](NC(C)C)C4)ccc3n2)cc2cn(C)nc12 (single isomer, unassigned) [Compound 319]	< 100 nM
Cc1c(O)c(-c2ccc3nc(N4CC[C@H](NCC5CC5)C4)ccc3n2)cc2cn(C)nc12 (single isomer, unassigned) [Compound 321]	< 100 nM
Cc1c(O)c(-c2ccc3nc(N4CC[C@@H](NCC5CC5)C4)ccc3n2)cc2cn(C)nc12 (single isomer, unassigned) [Compound 322]	< 100 nM

SMILES	IC50
Cc1nc2c(F)c(O)c(-c3ccc4nc(N5CC[C@@H](NCC6CC6)C5)ccc4n3)cc2o1 (single isomer, unassigned) [Compound 323]	< 100 nM
Cn1cc2cc(-c3ccc4nc(N5CC[C@H](N[C@H]6C[C@H](F)C6)C5)ccc4n3)c(O)c(F)c2n1 (single isomer, unassigned) [Compound 347]	< 100 nM
Cn1cc2cc(-c3ccc4nc(N5CC[C@@H](N[C@H]6C[C@H](F)C6)C5)ccc4n3)c(O)c(F)c2n1 (single isomer, unassigned) [Compound 349]	< 100 nM
Cc1nc2c(C)c(O)c(-c3ccc4nc(N5CC[C@H](N[C@H]6C[C@H](F)C6)C5)ccc4n3)cc2o1 (single isomer, unassigned) [Compound 351]	< 100 nM
Cc1nc2c(C)c(O)c(-c3ccc4nc(N5CC[C@@H](N[C@H]6C[C@H](F)C6)C5)ccc4n3)cc2o1 (single isomer, unassigned) [Compound 352]	< 100 nM
Cc1nc2c(C)c(O)c(-c3ccc4nc(N5CC[C@H](NC6CC6)C5)ccc4n3)cc2o1 [Compound 216]	< 100 nM
Cc1nc2c(C)c(O)c(-c3ccc4nc(N5CC[C@@H](NC6CC6)C5)ccc4n3)cc2o1 [Compound 217]	< 100 nM
Cn1cc2cc(-c3ccc4nc(N5CCC(NC6(C)CC6)C5)ccc4n3)c(O)cc2n1 (centres unmarked) [Compound 219]	< 100 nM
Cc1nc2cc(O)c(-c3ccc4nc(N5CC[C@@H](NC6CCC6)C5)ccc4n3)cc2o1 [Compound 229]	< 100 nM
Cc1nc2cc(O)c(-c3ccc4nc(N5CCC(NC(C)C)C5)ccc4n3)cc2o1 (centres unmarked) [Compound 231]	< 100 nM
Cc1nc2c(C)c(O)c(-c3ccc4nc(N5CCC(NC6CCC6)C5)ccc4n3)cc2o1 (centres unmarked) [Compound 235]	< 100 nM
Cc1nc2c(C)c(O)c(-c3ccc4nc(N5CC[C@H](NC6CCC6)C5)ccc4n3)cc2o1 [Compound 237]	< 100 nM
Cc1cc(-c2ccc3nc(N4CCC(NC(C)(C)C)C4)ccc3n2)nc2cn(C)nc12 (centres unmarked) [Compound 248]	100 to 1000 nM
Cc1c(O)c(-c2ccc3nc(N4CC[C@@H](NC(C)(C)C)C4)ccc3n2)cc2cn(C)nc12 [Compound 249]	< 100 nM
COc1c(-c2ccc3nc(N4CCC(NC(C)(C)C)C4)ccc3n2)cc2c[nH]nc2c1C (centres unmarked) [Compound 251]	100 to 1000 nM
Cc1c(O)c(-c2ccc3nc(N4CCC(NCC5CC5)C4)ccc3n2)cc2cn(C)nc12 (centres unmarked) [Compound 284, 5-(6-{3-[(cyclopropylmethyl)amino]pyrrolidin-1-yl}-1,5-naphthyridin-2-yl)-2,7-dimethylindazol-6-ol]	< 100 nM
Cc1c(O)c(-c2ccc3nc(N4CCC(NC5CCC5)C4)ccc3n2)cc2cn(C)nc12 (centres unmarked) [Compound 288, 5-{6-[3-(cyclobutylamino)pyrrolidin-1-yl]-1,5-naphthyridin-2-yl}-2,7-dimethylindazol-6-ol]	< 100 nM

The next lines start with the values.

IC50	SMILES
< 100 nM	CC(C)N[C@@H]1CCN(c2ccc3nc(-c4cc5cn(C)nc5c(F)c4O)ccc3n2)C1 (single isomer, unassigned) [Compound 285]
< 100 nM	Cc1nc2cc(O)c(-c3ccc4nc(N5CCC(NCC6CC6)C5)ccc4n3)cc2o1 (single isomer, unassigned) [Compound 292, 6-(6-{3-[(cyclopropylmethyl)amino]pyrrolidin-1-yl}-1,5-naphthyridin-2-yl)-2-methyl-1,3-benzoxazol-5-ol]
< 100 nM	Cc1nc2c(C)c(O)c(-c3ccc4nc(N5CC[C@@H](NCC6CC6)C5)ccc4n3)cc2o1 (single isomer, unassigned) [Compound 295]
< 100 nM	Cc1nc2c(C)c(O)c(-c3ccc4nc(N5CC[C@@H](NC6(C)CC6)C5)ccc4n3)cc2o1 (single isomer, unassigned) [Compound 310]
< 100 nM	Cc1nc2c(C)c(O)c(-c3ccc4nc(N5CC[C@H](NC6(C)CC6)C5)ccc4n3)cc2o1 (single isomer, unassigned) [Compound 311]
< 100 nM	Cc1nc2c(C)c(O)c(-c3ccc4nc(N5CC[C@@H](NC(C)C)C5)ccc4n3)cc2o1 (single isomer, unassigned) [Compound 313]
< 100 nM	Cc1nc2c(C)c(O)c(-c3ccc4nc(N5CC[C@H](NC(C)C)C5)ccc4n3)cc2o1 (single isomer, unassigned) [Compound 314]
< 100 nM	Cc1nc2c(F)c(O)c(-c3ccc4nc(N5CC[C@H](NCC6CC6)C5)ccc4n3)cc2o1 (single isomer, unassigned) [Compound 324]
< 100 nM	Cc1nc2c(F)c(O)c(-c3ccc4nc(N5CC[C@@H](NC(C)C)C5)ccc4n3)cc2o1 (single isomer, unassigned) [Compound 329]
< 100 nM	Cc1nc2c(F)c(O)c(-c3ccc4nc(N5CC[C@H](NC(C)C)C5)ccc4n3)cc2o1 (single isomer, unassigned) [Compound 330]
100 to 1000 nM	Cc1nc2cc(O)c(-c3ccc4nc(N5CC[C@@H](N[C@H]6C[C@H](F)C6)C5)ccc4n3)cc2o1 (single isomer, unassigned) [Compound 348]
< 100 nM	Cc1nc2c(F)c(O)c(-c3ccc4nc(N5CC[C@@H](NC6(C)CC6)C5)ccc4n3)cc2o1 (stereo in doubt) [Compound 326, 4-fluoro-2-methyl-6-{6-[(3 S)-3-[(1-methylcyclopropyl)amino]pyrrolidin-1-yl]-1,5-naphthyridin-2-yl}-1,3-benzoxazol-5-ol]
< 100 nM	Cc1nc2c(F)c(O)c(-c3ccc4nc(N5CCC(NC6(C)CC6)C5)ccc4n3)cc2o1 (stereo in doubt) [Compound 327, 4-fluoro-2-methyl-6-{6-[(3R)-3-[(1-methylcyclopropyl)amino]pyrrolidin-1-yl]-1,5-naphthyridin-2-yl}-1,3-benzoxazol-5-ol]
< 100 nM	Cc1nc2c(C)c(O)c(-c3ccc4nc(N5CC[C@H](NC(C)(C)C)C5)ccc4n3)cc2o1 [Compound 214]
< 100 nM	Cc1nc2cc(O)c(-c3ccc4nc(N5CC[C@H](NC6CCC6)C5)ccc4n3)cc2o1 [Compound 230]
< 100 nM	Cc1nc2c(C)c(O)c(-c3ccc4nc(N5CC[C@@H](NC6CCC6)C5)ccc4n3)cc2o1 [Compound 236]
< 100 nM	Cc1c(O)c(-c2ccc3nc(N4CC[C@H](NC(C)(C)C)C4)ccc3n2)cc2cn(C)nc12 [Compound 250]
100 to 1000 nM	Cc1cn2nc(-c3ccc4nc(N5CCC(NC6CC6)C5)ccc4n3)c(O)c2c(C)n1 (centres unmarked) [Compound 252]
